This passage reports remaining activity results from paper PMC10824666 (Nature Cancer, 2023).

For one test, the target named is MAPK4 (Homo sapiens, UniProt P31152). Description: biochemical. More on the design: Eurofins DiscoverX kinase panel, competitive binding assay at 1 uM, percent of DMSO control. Conditions: competitive binding, percent of DMSO control. Summed up:
(§1)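 Competitive binding assay across a 96-kinase panel with KIF18A compounds at 1 µM; values given as percentage of control (POC), single experiment.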

The target of the next test is T1, YSK4 (Homo sapiens, UniProt Q56UN5).
T1 construct: gene MAP3K19
T1 sequence (Q56UN5 1-1328): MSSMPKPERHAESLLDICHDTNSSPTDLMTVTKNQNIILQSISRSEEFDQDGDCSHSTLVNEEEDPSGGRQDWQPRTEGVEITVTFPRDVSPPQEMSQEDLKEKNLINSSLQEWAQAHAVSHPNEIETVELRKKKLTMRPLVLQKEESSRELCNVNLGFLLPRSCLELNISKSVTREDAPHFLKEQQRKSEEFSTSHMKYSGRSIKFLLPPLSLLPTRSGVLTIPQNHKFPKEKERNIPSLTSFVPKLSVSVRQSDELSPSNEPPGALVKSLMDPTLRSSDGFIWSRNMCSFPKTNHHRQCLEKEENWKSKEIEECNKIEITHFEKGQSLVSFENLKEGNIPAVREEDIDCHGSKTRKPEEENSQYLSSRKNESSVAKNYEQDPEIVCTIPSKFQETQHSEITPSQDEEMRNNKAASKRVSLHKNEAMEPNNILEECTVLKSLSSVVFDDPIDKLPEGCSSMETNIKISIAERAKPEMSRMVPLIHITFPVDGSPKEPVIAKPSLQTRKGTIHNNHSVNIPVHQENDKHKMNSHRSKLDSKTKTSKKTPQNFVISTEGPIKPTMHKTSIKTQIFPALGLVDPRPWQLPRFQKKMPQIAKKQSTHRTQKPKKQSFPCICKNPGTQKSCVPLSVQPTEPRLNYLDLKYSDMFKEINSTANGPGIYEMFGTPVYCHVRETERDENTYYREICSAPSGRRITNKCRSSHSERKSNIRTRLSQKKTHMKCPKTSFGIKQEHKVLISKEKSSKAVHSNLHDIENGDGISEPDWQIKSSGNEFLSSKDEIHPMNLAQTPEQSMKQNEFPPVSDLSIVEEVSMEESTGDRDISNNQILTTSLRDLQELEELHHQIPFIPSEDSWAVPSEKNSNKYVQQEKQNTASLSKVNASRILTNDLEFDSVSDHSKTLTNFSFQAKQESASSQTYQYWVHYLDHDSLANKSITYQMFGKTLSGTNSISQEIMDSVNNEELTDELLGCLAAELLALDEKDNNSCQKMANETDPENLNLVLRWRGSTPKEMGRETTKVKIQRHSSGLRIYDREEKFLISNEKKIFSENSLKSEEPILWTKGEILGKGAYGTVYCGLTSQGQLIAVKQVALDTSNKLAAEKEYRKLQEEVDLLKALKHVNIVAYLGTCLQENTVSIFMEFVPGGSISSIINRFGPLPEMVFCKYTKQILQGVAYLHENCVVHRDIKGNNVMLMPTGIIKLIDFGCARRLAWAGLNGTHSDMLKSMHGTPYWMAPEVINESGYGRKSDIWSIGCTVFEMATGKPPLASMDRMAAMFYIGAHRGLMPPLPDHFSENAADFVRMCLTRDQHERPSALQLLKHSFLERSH
The experiment in a line: biochemical. Conditions: competitive binding, percent of DMSO control. More on the design: Eurofins DiscoverX kinase panel, competitive binding assay at 1 uM, percent of DMSO control. In outline: as §1

Setting [1] is: read-out: Kinome Profiling performed by Eurofins DiscoverX / AM-0277, 1.0 µM / POC.
Setting [2] is: read-out: Kinome Profiling performed by Eurofins DiscoverX / AM-1882, 1.0 µM / POC.
[3] abbreviates: read-out: Kinome Profiling performed by Eurofins DiscoverX / AM-5308, 1.0 µM / POC.

Like-named read-outs stand apart in the source and are kept apart here.

MAPK4, sequence (P31152 whole entry): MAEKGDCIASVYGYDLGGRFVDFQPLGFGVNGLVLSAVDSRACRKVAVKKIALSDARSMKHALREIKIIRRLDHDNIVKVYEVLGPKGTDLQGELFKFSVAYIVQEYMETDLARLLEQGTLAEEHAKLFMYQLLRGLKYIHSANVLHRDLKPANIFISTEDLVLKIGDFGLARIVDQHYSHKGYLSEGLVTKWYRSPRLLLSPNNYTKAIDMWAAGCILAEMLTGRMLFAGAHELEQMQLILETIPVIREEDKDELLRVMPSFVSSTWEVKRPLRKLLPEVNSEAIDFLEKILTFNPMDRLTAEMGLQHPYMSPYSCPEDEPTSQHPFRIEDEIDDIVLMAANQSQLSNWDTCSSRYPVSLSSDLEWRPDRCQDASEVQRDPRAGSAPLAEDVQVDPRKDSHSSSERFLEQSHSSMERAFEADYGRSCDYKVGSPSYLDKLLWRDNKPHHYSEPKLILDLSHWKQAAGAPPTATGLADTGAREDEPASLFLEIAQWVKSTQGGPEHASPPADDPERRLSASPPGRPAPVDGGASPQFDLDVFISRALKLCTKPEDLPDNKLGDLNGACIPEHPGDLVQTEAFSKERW

`CC(C)(CO)Nc1ccc(C(=O)Nc2cccc(S(=O)(=O)C3CCCC3)c2)c(N2CCC3(CC2)CC3)n1` [AM-0277]: the remaining activity at 1 µM is 98% at MAPK4 (setting [1]) and 100% at YSK4 (setting [1]).
`CC(C)(C)NS(=O)(=O)c1cccc(NC(=O)c2ccc(S(=O)(=O)NC(C)(C)C)cc2N2CCC3(CC2)CC3)c1` [AM-1882]: the remaining activity at 1 µM at MAPK4 (setting [2]) was 99%; on YSK4 (setting [2]), 87%.
For `C[C@@H]1CN(c2cccc(NC(=O)c3ccc(NS(=O)(=O)CCO)cc3N3CCC4(CC3)CC4)n2)CCO1` [AM-5308], the remaining activity at 1 µM on MAPK4 (setting [3]) amounted to 81.5%; on YSK4 (setting [3]) it was 75.5%.
